Results on 5 compounds are retold here after ChEMBL document CHEMBL1157403, “Lanostane-type triterpenoids from the roots of Kadsura coccinea” (2008).

The term GI50 denotes the concentration at which growth is held to half of that of the control. A high value points to less potent growth inhibition.

The assay relates to HL-60. As to the kind of experiment: Antiproliferative activity against human HL60 cells after 3 days by trypan blue staining. It is filed as functional. As to conditions: HL-60, 72 h.

For `C=C(C)[C@@H]1CC=C2[C@H](CC[C@]3(C)[C@@H]([C@H](C)CC(=O)C=C(C)C)CC[C@@]23C)[C@@]1(C)CCC(=O)O` [SECO-COCCINIC ACID B], it took 13.3 µM to inhibit growth by half (GI50). The result for `C=C(C)[C@@H]1CC=C2[C@H](CC[C@]3(C)[C@@H]([C@H](C)CC(=O)CC(C)(C)O)CC[C@@]23C)[C@@]1(C)CCC(=O)O` [SECO-COCCINIC ACID C] reads 12.1 µM; that for `C=C(C)[C@H](O)CC[C@@H](C)[C@H]1CC[C@@]2(C)C3=CC[C@@H](C(=C)C)[C@](C)(CCC(=O)O)[C@@H]3CC[C@]12C` [SECO-COCCINIC ACID E], 42.1 µM; that for `C=C(C)[C@@H]1CC=C2[C@H](CC[C@]3(C)[C@@H]([C@H](C)CC(=O)CC(C)C)CC[C@@]23C)[C@@]1(C)CCC(=O)O` [SECO-COCCINIC ACID A], 6.8 µM. `O=c1[nH]cc(F)c(=O)[nH]1` [FLUOROURACIL] displayed a concentration for 50% growth inhibition (GI50) of 3.8 µM.
